Source: PMC2680961, “Homologous desensitization of signalling by the alpha (α) isoform of the human thromboxane A2 receptor: A specific role for nitric oxide signalling” (Biochimica et Biophysica Acta, 2007)

What was measured:
TPα^S331A [1] = biological target: T1, TPα^S331A (Homo sapiens, UniProt P21731, S331A); assay: Agonist-mediated TP phosphorylation in whole cells, HEK.TPα^S331A; type: cell-based; conditions: 1 μM U46619 10 min
T1 construct: expressed in transfected cells
T1 sequence (P21731 1-343 S331A): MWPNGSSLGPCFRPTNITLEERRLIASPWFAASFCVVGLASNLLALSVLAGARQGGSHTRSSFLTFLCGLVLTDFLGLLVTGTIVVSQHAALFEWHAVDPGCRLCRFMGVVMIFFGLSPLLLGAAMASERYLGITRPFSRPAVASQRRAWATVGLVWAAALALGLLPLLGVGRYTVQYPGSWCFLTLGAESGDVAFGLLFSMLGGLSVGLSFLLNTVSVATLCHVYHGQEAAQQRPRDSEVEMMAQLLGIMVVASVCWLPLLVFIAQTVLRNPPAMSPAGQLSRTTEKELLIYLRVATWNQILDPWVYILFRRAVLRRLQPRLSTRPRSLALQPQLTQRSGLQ
Method: Agonist-mediated TP phosphorylation in whole cells (1.8–2 × 10^6 cells/10 cm dish) was performed essentially as previously described. Briefly, cells were transiently co-transfected with pADVA (10 μg), pCMV:Gαq (25 μg) plus pcDNA:βArrestin2 (25 μg) approximately 48 h prior to labelling. Thereafter, cells were washed once in phosphate-free DMEM, 10% dialysed FBS and were metabolically labelled for 60 min in the same medium (2 ml/10 cm dish) containing 100 μCi/ml [^32P] orthophosphate (8000–9000 Ci/mmol) at 37 °C, 5% CO2. Where appropriate, the PKG kinase inhibitor KT 5823 (50 nM) or its vehicle was added during the labelling period. Thereafter, U46619 (1 μM) or an equivalent volume of vehicle (0.01% ethanol in HBS; 20 μl) were added and cells were incubated for 10 min at 37 °C, 5% CO2. Reactions were terminated by transferring the dishes to ice and aspirating the labelled medium and HA-epitope tagged TP receptors were processed and immunoprecipitated using the anti-HA 101R antibody as previously described. Electroblots were then exposed to Xomat XAR (Kodak) film to detect ^32P-labelled proteins. Thereafter, blots were subject to phosphorimage analysis, and the intensities of agonist-induced phosphorylation were expressed in arbitrary units relative to basal (vehicle-stimulated) levels. In parallel experiments, cells were incubated under identical conditions in the absence of [^32P] orthophosphate; HA-tagged TP receptors were immunoprecipitated from the same cell lines using the anti-HA 101R antibody and immunoblots were screened using the anti-HA 3F10 horseradish peroxidase-conjugated antibody.

TPα^S331A [2] = biological target: T1, TPα^S331A; assay: Intracellular calcium mobilization, HEK.TPα^S331A cells; type: cell-based; conditions: for Δ[Ca2+]i, U46619-induced: HEK.TPα^S331A
Method: Measurement of intracellular calcium mobilization ([Ca^2+]i) in FURA2/AM preloaded HEK 293 cell lines (2 × 10^6 cells/dish), each transiently co-transfected with pADVA (10 μg), and pCMV:Gαq (25 μg), was carried out as previously described. To investigate the effect of GRK2/βARK1 on TP-mediated [Ca^2+]i mobilization, HEK.TPα or HEK.TPβ cells (2 × 10^6 cells/dish) were co-transfected with pADVA (10 μg), pCMV:Gαq (25 μg) along with pRK5:βARK1^495–689 (25 μg), encoding a dominant negative form of GRK2/βARK1[39]. Approximately 48 h post-transfection, cells were harvested by scraping, washed twice in ice-cold PBS and resuspended in HBSSHB (modified Ca^2+/Mg^2+-free Hank's buffered salt solution, containing […], pH 7.67, 0.1% bovine serum albumin (BSA)) buffer at 10^7 cells/ml and incubated in the dark with 5 μM FURA2/AM for 45 min at 37 °C. […] For each measurement of [Ca^2+]i mobilization, aliquots of cells were diluted to 0.825 × 10^6 cells/ml in HBSSHB, 1 mM CaCl2 and FURA2 fluorescence was recorded (2 ml aliquots of cells) at 37^ °C with gentle stirring with a Perkin Elmer-Cetus LS50-B spectrofluorometer at excitation wavelengths of 340 nm and 380 nm and emission wavelength of 510 nm, respectively.
Cells were stimulated with the TP agonist U46619 (1 μM) and changes in [Ca^2+]i mobilization were monitored as a function of time. To assess agonist-mediated homologous desensitization, cells (0.825 × 10^6 cells/ml; 2 ml per assay) were stimulated with 1 μM U46619 (Primary stimulation) or, as a control, with the vehicle for 4 min; thereafter, cells were collected by centrifugation (900×g, 5 min); were washed twice in 2 ml HBSSHB, 1 mM CaCl2; and finally resuspended in 2 ml HBSSHB,1 mM CaCl2 and were left to recover over various time intervals (ranging from 0 to 60 min); thereafter, cells re-stimulated with 1 μM U46619 (Secondary stimulation) and changes in [Ca^2+]i mobilization were monitored as a function of time. […]

CCCCC[C@H](O)/C=C/[C@@H]1[C@@H](C/C=C\CCCC(=O)O)[C@H]2CO[C@@H]1C2 [U46619]
U46619-mediated TPα^S331A phosphorylation relative to basal (vehicle) (TPα^S331A [1]): 2 fold
Δ[Ca2+]i, U46619-induced (TPα^S331A [2]; primary 1 μM U46619 4 min): 207 ± 9.1 nM
Δ[Ca2+]i, U46619-induced (TPα^S331A [2]; secondary 1 μM U46619 at 15 min): 80 ± 6.8 nM
secondary U46619 [Ca2+]i response relative to primary response (TPα^S331A [2]; TPα^S331A): 39%
